The text below walks through data of patent publication US20220289794A1, “SYNTHETIC ANTIMICROBIAL PEPTIDES” (priority 2019, published 2022).

Values after ≈ are worked out from the molar mass of the structure shown. Values joined by “and” are separate entries in the source; they are usually repeats but may differ in a detail not shown here. Identical values can stand only once. Like-named read-outs stand apart in the source and are kept apart here. Residues, ends and D or L forms follow the SMILES beside them.

The MIC90 is the lowest concentration that inhibits either 90% of growth or 90% of the strains tested, depending on the study. Low values mean higher susceptibility, high ones lower susceptibility. For orientation: MIC99 means the lowest concentration that inhibits either 99% of growth or 99% of the strains tested, depending on the study. One may read the inhibition as the drop in the measured response relative to a control, in per cent.

In assay [1] the test system is MRSA. Description: microbe, parasite or virus in culture. The settings on record: Staphylococcus aureus, ATCCBAA1556 / MRSA, read-out: MIC MRSA (ATCC BAA-1556).
Assay [2] concerns Escherichia coli (E. Coli, ATCC 25922). The settings on record: antibiotics alone and PHY-MIX (1:1 w/w).
Assay [3] relates to Methicillin-resistant Staphylococcus aureus MRSA (ATCC BAA-1556). Description: microbe, parasite or virus in culture. The conditions noted are these: read-out: MIC MRSA (ATCC BAA-1556).
The subject of assay [4] is Escherichia coli (E. Coli, ATCC 25922). Description: microbe, parasite or virus in culture. The settings on record: ATCC25922, 24 h, read-out: Escherichia coli (ATCC 25922) MIC.
For assay [5], the system named is Pseudomonas aeruginosa (ATCC 27883). The experiment in a line: microbe, parasite or virus in culture.
Assay [6] has as its system Pseudomonas aeruginosa (PSA, ATCC 27883). The experiment in a line: Synergy checkerboard assay (FIC index). The conditions noted are these: ATCC27883, 24 h; Table 25; Pseudomonas aeruginosa (ATCC 27883); antibiotic alone. Type of assay: cell-based.
Assay [7] concerns Klebsiella pneumoniae (ATCC BAA-1705). The experiment in a line: microbe, parasite or virus in culture.
Assay [8] relates to Pseudomonas aeruginosa (PSA, ATCC 27883). Description: microbe, parasite or virus in culture. The conditions noted are these: ATCC27883, 24 h, read-out: Pseudomonas aeruginosa (ATCC 27883) MIC.
For assay [9], the system named is E. coli. The settings on record: Table 37; peptides and peptide-capped gold nanoparticles.
For a further assay, the system named is PSA. The settings on record: Table 37; peptides and peptide-capped gold nanoparticles.
Assay [10] concerns Clostridium difficile (ATCC 700057). Description: MIC determination, broth microdilution (CLSI). Type of assay: cell-based. Background: Dilution methods test growth across graded concentrations, often in twofold steps.
In assay [11] the test system is Staphylococcus aureus ATCC 33592 (MRSA) biofilm. Description: microbe, parasite or virus in culture. The settings on record: read-out: inhibition of biofilm formation.
Method: (§3) Bacteria. The bacterial strains employed in these assays were obtained from the American Type Culture Collection (ATCC). Each strain was propagated as recommended by the ATCC and each strain was stored as a frozen glycerol stock at −80° C.
(§4) Bacterial Propagation. […] Following the incubation, the culture was diluted to an optical density 625 nm (OD625) of 0.1 in cation adjusted Mueller Hinton Broth (CAMHB), which is equivalent to 1×10^8 CFU/mL. The culture was further diluted to 1×10^6 CFU/mL which was used for the assay.
(§5) Determination of the Temporal Effects of SPL7013 Addition to Inhibit Biofilm Formation. Each strain of bacteria was adjusted to a concentration of 1×10^6 CFU/mL and added to a 96-well flat-bottomed plate in a volume of 100 mL. One-hundred microliters (100 mL) of each compound at 10 concentrations was added in triplicate wells. The cultures were incubated for 24 hours at 37° C. under the appropriate growth conditions for each organism. Following the incubation, the media was removed, and the formed biofilms were fixed for 1 hour at 60° C. Two-hundred microliters (200 mL) of 0.06% crystal violet was added to the wells for 5 to 10 minutes and the wells were then gently washed three times with deionized H2O to remove the crystal violet. Following crystal violet staining 200 mL of 70% ethanol was added to the wells.
Assay [12] has the same test system. The conditions noted are these: all other concentrations ([…] to 0.001 μg/mL).
Method: as §3, §4, §5
Another assay relates to KPC. The conditions noted are these: Table 37; peptides and peptide-capped gold nanoparticles.
Assay [13] relates to Klebsiella pneumoniae (KPC, ATCC BAA-1705). The settings on record: Klebsiella pneumoniae (ATCC BAA-1705); antibiotic alone.
The subject of assay [14] is Clostridium difficile (NAP1/027). The experiment in a line: MIC determination, broth microdilution (CLSI). Type of assay: cell-based.
Assay [15] relates to Pseudomonas aeruginosa (PSA, ATCC 27883). The conditions noted are these: antibiotics alone and PHY-MIX (1:1 w/w).
Assay [16] concerns Escherichia coli (ATCC 25922). Description: microbe, parasite or virus in culture.
The test system of assay [17] is Klebsiella pneumoniae (KPC, ATCC BAA-1705). The experiment in a line: microbe, parasite or virus in culture. The settings on record: ATCCBAA1705, 24 h.
The test system is the same in assay [18]. Description: microbe, parasite or virus in culture. The conditions noted are these: ATCCBAA1705, 24 h, read-out: MIC of antibiotic.
Assay [19] relates to Pseudomonas aeruginosa (ATCC 27883). Type of assay: cell-based. The settings on record: Table 22. On the procedure:
(§1) All bacteria pathogens tested clinically reported multi-drug resistant strains. The antibacterial activity was tested against Gram-negative strains namely; Pseudomonas aeruginosa (PSA), Klebsiella pneumoniae (KPC), Escherichia coli (E. coli) and Gram-positive Methicillin-resistant Staphylococcus aureus (MRSA). The minimum inhibitory concentration (MIC) is the lowest concentration of the antibiotic that inhibits microbial growths. MIC is determined by visual inspection or use of spectrophotometer plate reader to determine media turbidity. On the other hand, the minimum bactericidal concentration (MBC) is the lowest concentration that kills […] of bacterial growth. Cytotoxicity of peptides in the hepatic cell line, human skin fibroblast cell line, heart/myocardium cells, and human lung fibroblast cells is shown in FIGS. 36-46). […] (IFX-315)-Au-NP with antibiotics are shown in FIGS. 49-58 when the gold nanoparticles are formed by the peptide followed by addition of the antibiotic. […] (IFX-301) with antibiotics (1:1 ratio) first and then used in the synthesis of Au-NP in antibacterial activities is shown in FIGS. 59-68.
(§2) The MBC is identified by determining the lowest concentration of antibacterial agent that reduces the viability (concentration of peptides necessary to achieve a bactericidal effect) of the initial bacterial inoculum by ≥99.9%.

For assay [20], the system named is Methicillin-resistant Staphylococcus aureus MRSA (ATCC BAA-1556). The assay is classed as cell-based. On the procedure:
as §1, §2

Assay [21] relates to Escherichia coli (ATCC 25922). Type of assay: cell-based. As to the method:
as §1, §2

The test system of assay [22] is Klebsiella pneumoniae (ATCC BAA-1705). Type of assay: cell-based. As to the method:
as §1, §2

The test system of assay [23] is E. coli. The conditions noted are these: cited from earlier work.
The test system of assay [24] is Pseudomonas aeruginosa (PA01). The settings on record: previously shown (Oh et al. 2014), listed as [W4R4]; cited from earlier work.
In assay [25] the test system is Methicillin-Resistant Staphylococcus aureus (MRSA). The conditions noted are these: cited from earlier work.
For assay [26], the system named is Escherichia coli (ATCC 25922). The conditions noted are these: ATCC 25922.
For assay [27], the system named is MRSA. Description: In vivo Galleria Mellonella Assay (MRSA infection). The conditions noted are these: MRSA-infected G. mellonella, after one week.
Assay [28] relates to Klebsiella pneumoniae (ATCC BAA-1705). The settings on record: ATCC BAA-1705.
The subject of assay [29] is Methicillin-resistant Staphylococcus aureus MRSA (ATCC BAA-1556). The conditions noted are these: ATCC BAA-1556.
Assay [30] deals with Pseudomonas aeruginosa (ATCC 27883). The conditions noted are these: ATCC 27883.
For assay [31], the system named is Methicillin-Resistant Staphylococcus aureus (MRSA). The settings on record: previously shown (Oh et al. 2014), listed as [W4R4]; cited from earlier work.

Regarding `CN[C@H](CC(C)C)C(=O)N[C@H]1C(=O)N[C@@H](CC(N)=O)C(=O)N[C@H]2C(=O)N[C@H]3C(=O)N[C@H](C(=O)N[C@H](C(=O)O)c4cc(O)cc(O)c4-c4cc3ccc4O)[C@H](O)c3ccc(c(Cl)c3)Oc3cc2cc(c3O[C@@H]2O[C@H](CO)[C@@H](O)[C@H](O)[C@H]2O[C@H]2C[C@](C)(N)[C@H](O)[C@H](C)O2)Oc2ccc(cc2Cl)[C@H]1O` [Vancomycin, reference compound], the MIC in the assay on MRSA [1] was 0.5 µg/mL (≈ 0.345 µM); in [3], 0.5 µg/mL (≈ 0.345 µM); in [4] it was > 64 µg/mL; in assay [5] (ATCC27883, read-out: MIC P. aeruginosa ATCC 27883), > 256 µg/mL; in assay [5] (ATCC27883, read-out: PSA (ATCC 27883 MIC)), > 512 µg/mL; in assay [6] it was > 256 µg/mL. Also, the MIC is > 512 µg/mL in assay [7] (ATCCBAA1705, read-out: KPC (ATCC BAA-1705) MIC); > 256 µg/mL in assay [7] (ATCCBAA1705, read-out: MIC K. pneumoniae (ATCC BAA-1705)); > 64 µg/mL in [8]; > 512 µg/mL in [16] (ATCC25922, read-out: E. coli (ATCC 25922) MIC); > 256 µg/mL in assay [16] (ATCC25922, read-out: MIC E. coli (ATCC 25922)); > 256 µg/mL in assay [17] (read-out: Klebsiella pneumoniae (ATCC BAA-1705) MIC, Table 28, IFX-031, antibiotics alone and PHY-MIX (1:1 w/w)). Moreover, the MIC is > 256 µg/mL in [17] (read-out: Klebsiella pneumoniae (ATCC BAA-1705) MIC, Table 29, [R6W4] (IFX-318), antibiotics alone and PHY-MIX (1:1 w/w)); > 256 µg/mL in [17] (read-out: Klebsiella pneumoniae (ATCC BAA-1705) MIC, Table 30, [R5W4K] (IFX-315), antibiotics alone and PHY-MIX (1:1 w/w)); > 64 µg/mL in [17] (read-out: Klebsiella pneumoniae (ATCC BAA-1705) MIC, Table 31, [R5W4] (IFX-301), antibiotics alone and PHY-MIX (1:1 w/w)); > 256 µg/mL in assay [18]. The “Escherichia coli (ATCC 25922) MIC” value in assay [2] (Table 29, [R6W4] (IFX-318)) is >64 µg/mL; in assay [2] (Table 30, [R5W4K] (IFX-315)), >64 µg/mL; in assay [2] (Table 31, [R5W4] (IFX-301)), >64 µg/mL. The “MIC Escherichia coli (ATCC 25922)” value against E. coli [9] is given as “No effect”. In the assay on PSA, the “MIC Pseudomonas aeruginosa (ATCC 27883)” value is on record as “No effect”. For the same compound, the values for the MIC90 in assay [10] and in [14] were 0.63 µg/mL (≈ 0.435 µM) and 0.31 µg/mL (≈ 0.214 µM), respectively. The values for the MIC95 in [10] and in assay [14] were 0.63 µg/mL (≈ 0.435 µM) and 0.31 µg/mL (≈ 0.214 µM), respectively. The figures for the MIC99 in assay [10] and in assay [14] were 0.63 µg/mL (≈ 0.435 µM) and 0.31 µg/mL (≈ 0.214 µM), respectively. In addition, the inhibition at 5000 µg/mL in assay [11] was ~97%. The “inhibition of biofilm formation” value in assay [12] is “approximately 50%”. The “MIC Klebsiella pneumoniae (ATCC BAA-1705)” value against KPC is listed as “No effect”. Besides, the MIC of antibiotic in assay [13] was > 256 µg/mL. The “Pseudomonas aeruginosa (ATCC 27883) MIC” value in assay [15] (Table 29, [R6W4] (IFX-318)) was >64 µg/mL; in assay [15] (Table 30, [R5W4K] (IFX-315)), >64 µg/mL; in [15] (Table 31, [R5W4] (IFX-301)) it was >64 µg/mL.

In the case of `N=C(N)NCCC[C@@H]1NC(=O)[C@H](CCCNC(=N)N)NC(=O)[C@H](CCCNC(=N)N)NC(=O)[C@H](Cc2c[nH]c3ccccc23)NC(=O)[C@H](Cc2c[nH]c3ccccc23)NC(=O)[C@H](Cc2c[nH]c3ccccc23)NC(=O)[C@H](Cc2c[nH]c3ccccc23)NC(=O)[C@H](CCCNC(=N)N)NC1=O` [[R4W4], reference compound] (cyclo(RRRRWWWW)), the “PSA (ATCC 27883) MBC” value in assay [19] is 128 µg/mL. The “MRSA (ATCC BAA-1556) MBC” value in assay [20] came out at 32 µg/mL. Besides, the “E. coli (ATCC 25922) MBC” value in [21] came out at 32 µg/mL. For the same compound, the “KPC (ATCC BAA-1705) MBC” value in assay [22] came to 64 µg/mL. Also, the “interaction with tetracycline in time-kill assays” value (in the assay with E. coli [23]; in [25]) was “synergistically” in each case. Besides, the MIC in assay [24] was 42.8 μg/mL and 31.3 μM; in [31], 2.67 μg/mL and 1.95 μM. Also, the “E. coli (ATCC 25922) MIC” value in [26] is 16 µg/mL. For the same compound, the larvae killed entry in the assay on MRSA [27] is on record as “all”. For the same compound, the “KPC (ATCC BAA-1705) MIC” value in [28] was found to be 32 µg/mL. Also, the “MRSA (ATCC BAA-1556) MIC” value in assay [29] was 4 µg/mL. The “PSA (ATCC 27883 MIC)” value in assay [30] was determined as 64 µg/mL.
